Assay results published in patent US5773447A, “Compounds for treating disorders of lipid metabolism and their preparation” (Hoechst Aktiengesellschaft, priority 1996, dated 1998).
Counter-ions that a name gives are not always drawn.

What was measured:
[1] = system: LDL receptor mRNA; assay: Stimulation of LDL receptor mRNA expression in rat livers after administration (Northern blot); assay type: in vivo; conditions: rat liver, 6 hours after administration, untreated control=100%
Text: (§1) Using a surrogate system, the present inventors sought to confirm the pharmacological activity of the inventive compounds. Thus, utilizing the human hepatocytoma cell line HepG2, which is recognized on all sides as a model, it was observed that the LDL receptor mRNA levels are increased by the compounds of the formula I (Table I). Even in rat livers, within a few hours the LDL receptor mRNA levels are increased by the compounds of the formula I (Table II). The observed stimulation is in the range from 170 to 350% of the controls (control=100%). Accordingly, an effective amount of an inventive compound can include an amount sufficient to increase CDL receptor levels or reduce plasma lipid levels.
The preparation of the mRNA was carried out according to the method of Chomczynski, P. and Sacchi, N., Anal. Biochem. 162, 156-159 (1987). In organs (such as, for example, liver), the deep-frozen tissue was homogenized on dry ice beforehand in a mortar, and the mRNA was further enriched by means of Oligo dT according to standard methods (cf. Sambrook, J., Fritsch, E. F. and Maniatis, T., Molecular Cloning, second Edition, Cold Spring Harbor (1989); in this collection of methods, there are also descriptions of all further relevant molecular biology standard methods used here). Five to […] of the dissolved mRNA thus obtained were denatured according to standard methods and separated on 1% horizontal agarose gels. The mRNA was transferred to Hybond N membranes (Amersham) by means of capillary blot. The specific hybridization probe used was a partial LDL receptor cDNA clone and the internal standard a plasmid which contained a β-actin gene. Both plasmids were labeled by means of a random primer kit from Amersham up to a specific activity of 5×10^9 cpm/μg. Prehybridization, hybridization and washing of the filters were carried out by standard methods. The filters were then exposed at -70° C. on Cronex 4 films (Dupont) overnight up to 14 days in the presence of an intensifying screen, and the hybridization signals were quantified using a commercial laser densitometer by means of the film-blackening intensity. The quotient of the intensity of the LDL receptor band and of the actin band was then determined as an internal standard to correct yield variations.
Liver tissue was removed and shock-frozen in liquid nitrogen. The mRNA was then isolated as described, and the relative LDL receptor mRNA levels were determined by means of the Northern blot technique. The mRNA levels of untreated control animals were set at 100%, and the stimulation of the LDL receptor mRNA in percent of the control was calculated.

[2] = Metabolic stability: dealkylation to compound A in in vitro incubations (HPLC); assay type: in vitro ADME; conditions: human, liver 9000 g fraction, 37° C., R1-dealkylated metabolite, read-out: relative content of compound A; for metabolised at 0.5 h: incubation time 0.5 h; for metabolised at 1 h: incubation time 1 h; for metabolised at 2 h: incubation time 2 h; for metabolised at 3 h: incubation time 3 h
Text: It is known that compounds of formula I where R^1 =alkyl are degraded in the metabolism to compounds of the formula I where R^1 =H (in the following called compound A). Accordingly, the instant inventors sought to investigate the metabolic fate of our inventive compounds. The following experiments, which can be carried out using intact human hepatocytes or liver extracts, are used to investigate the dealkylation tendency of the compounds of the formula I according to the invention in comparison to 4-amino-2-(4,4-dimethyl-2-oxoimidazolidin-1-yl)pyrimidine-5-N-(ethyl)-N-(3-trifluoromethyl-phenyl)carboxamide hydrochloride (compound of Example 2 from EP 0 557 879--in the following called compound B).
Frozen samples of pieces of human liver stored at -78° C. were thawed by introducing them into a 1.1% strength potassium chloride solution at a temperature of 4° C. […] After thawing, the pieces of liver were prepared by standard processes [A. Y. H. Lu, W. Levin; Biochem. Biophys. Res. Comm. 46, 1339-1344 (1972), P. G. Gervasi et al.; Xenobiotica 12/8, 517 (1982)]. The temperature was kept between 0° and 4° C. during the preparation. The 9000 g fractions of ten human livers were mixed in order to exclude interindividual enzyme differences.
The test substances were dissolved in DMSO at a concentration of about 10 mg/ml. Aliquot parts of this solution were added under sterile conditions to the hepatocyte cultures or the 9000 g fractions. The incubations were carried out at 37° C. in an atmosphere having 5% CO2 and >90% atmospheric humidity. […] NADPH and Mg^2+ were added to the 9000 g fractions as cofactors [P. G. Gervasi et al.; Xenobiotica 12/8, 517 (1982)]. All samples were frozen immediately after incubation and stored at below -20° C. until analysis.
For each species and each time, all incubations with hepatocytes and 9000 g fractions were carried out without addition of a test substance. The samples obtained were used as controls in the chromatographic analysis.
For the quantitative determination of compound A, i.e. the R^1 -dealkylated metabolite, in the in vitro incubation mixtures, […] of each mixture was in each case diluted with […] of bovine serum. These samples were analyzed by the following test for the determination of compound B free base and metabolite compound A free base in serum:
Fifty microliters of the prepared solution of an internal standard (10 μg of a compound of the formula I where R^1 =CH3, R^2, R^3 =H and R^4 =CF3 /ml of methanol), 0.1 ml of sodium acetate buffer (0.4M, pH 5.5) and 5 ml of ethyl ether were added to 0.1 ml of serum. The mixture was shaken for 20 min. After centrifuging, 4 ml of the organic phase were transferred, 3 ml of n-hexane were added and the mixture was extracted with 0.5 ml of 1% strength (v/v) aqueous trifluoroacetic acid. The upper organic layer was aspirated off and discarded. The aqueous residue was evaporated at 40° C. for 30 min. in order to remove residues of the organic solvent. 100 μl of the remaining aqueous phase were injected into the HPLC apparatus. HPLC analysis was carried out on a C18 RP column (TosoHaas Semi-Micro TSK gel ODS 80 TS) using a mobile phase of 800 g of water, 270 g of acetonitrile and 1 ml of trifluoroacetic acid. The flow rate was 0.2 ml/min. The quantitative determination of the analytes was carried out by measuring the peak heights with the aid of a UV detector at γ=240 nm. The calibration range was between 50 and 0.05 μg/ml corresponding to 200 to 0.2 μg/ml in the undiluted in vitro sample. The detection limit was 0.05 μg/ml corresponding to 0.2 μg/ml in the undiluted in vitro sample.

[3] = system: LDL receptor mRNA; assay: Stimulation of LDL receptor mRNA expression in HepG2 cells (Northern blot); assay type: cell-based; conditions: Homo sapiens, 2 × 10^-6 M, 16 h incubation, 10% fetal calf serum, LDL receptor/β-actin quotient, control=100%
Text: as §1
The preparation of the mRNA was carried out according to the method of Chomczynski, P. and Sacchi, N., Anal. Biochem. 162, 156-159 (1987). In organs (such as, for example, liver), the deep-frozen tissue was homogenized on dry ice beforehand in a mortar, and the mRNA was further enriched by means of Oligo dT according to standard methods (cf. Sambrook, J., Fritsch, E. F. and Maniatis, T., Molecular Cloning, second Edition, Cold Spring Harbor (1989); in this collection of methods, there are also descriptions of all further relevant molecular biology standard methods used here). […] The filters were then exposed at -70° C. on Cronex 4 films (Dupont) overnight up to 14 days in the presence of an intensifying screen, and the hybridization signals were quantified using a commercial laser densitometer by means of the film-blackening intensity. The quotient of the intensity of the LDL receptor band and of the actin band was then determined as an internal standard to correct yield variations.
Table I presents the stimulation of the LDL receptor mRNA expression in HepG2 cells by selected compounds of formula I in whole serum (final concentration of the compounds […]) after a 16 h incubation. […] The total mRNA was then prepared, and the relevant LDL receptor mRNA and β-actin mRNA levels were determined by means of the Northern blot technique. […]

CC1(C)CN(c2ncc(C(=O)N(CC(F)(F)C(F)(F)C(F)(F)F)c3cc(C(F)(F)F)ccc3Cl)c(N)n2)C(=O)N1 [Example 14, 4-Amino-2-(4,4-dimethylimidazolidin-2-on-1-yl)pyrimidine-5-[N-(3-trifluoromethyl-6-chlorophenyl)-N-(2,2,3,3,4,4,4-heptafluorobutyl)]-carboxamide]
response vs control in vivo at 30 mg/kg [1]: 194%

CC1(C)CN(c2ncc(C(=O)N(CC(F)(F)C(F)(F)C(F)(F)F)c3cccc(C(F)(F)F)c3)c(N)n2)C(=O)N1 [Example 2, 4-Amino-2-(4,4-dimethylimidazolidin-2-on-1-yl)pyrimidine-5-N-(2,2,3,3,4,4,4-heptafluorobutyl)-N-[(3-trifluoromethyl)phenyl]carboxamide hydrochloride]
response vs control in vivo at 30 mg/kg [1]: 245% | metabolised at 0.5 h [2]: < 2% | metabolised at 1 h [2]: < 2% | metabolised at 2 h [2]: < 2% | metabolised at 3 h [2]: < 2%

CCN(C(=O)c1cnc(N2CC(C)(C)NC2=O)nc1N)c1cccc(C(F)(F)F)c1 [Compound B, 4-amino-2-(4,4-dimethyl-2-oxoimidazolidin-1-yl)pyrimidine-5-N-(ethyl)-N-(3-trifluoromethyl-phenyl)carboxamide hydrochloride, reference compound]
metabolised at 0.5 h [2]: 4% | metabolised at 1 h [2]: 8% | metabolised at 2 h [2]: 10% | metabolised at 3 h [2]: 12%

CC1(C)CN(c2ncc(C(=O)N(CC(F)(F)C(F)(F)C(F)(F)F)c3ccc(Cl)c(C(F)(F)F)c3)c(N)n2)C(=O)N1 [Example 10, 4-Amino-2-(4,4-dimethylimidazolidin-2-on-1-yl)pyrimidine-5-N-[(4-chloro-3-trifluoromethyl)phenyl]-N-(2,2,3,3,4,4,4-heptafluorobutyl)carboxamide]
activity at 2 µM [3]: 206%

CC1(C)CN(c2ncc(C(=O)N(CC(F)(F)F)c3ccc(F)c(C(F)(F)F)c3)c(N)n2)C(=O)N1 [Example 6, 4-Amino-2-(4,4-dimethylimidazolidin-2-on-1-yl)pyrimidine-5-N-(2,2,2-trifluoroethyl)-N-[(4-fluoro-3-trifluoromethyl)phenyl]carboxamide]
response vs control in vivo at 30 mg/kg [1]: 216%

CC1(C)CN(c2ncc(C(=O)N(CCF)c3cccc(C(F)(F)F)c3)c(N)n2)C(=O)N1 [Example 12, 4-Amino-2-(4,4-dimethylimidazolidin-2-on-1-yl)pyrimidine-5-[N-(3-trifluoromethylphenyl)-N-(2-fluoroethyl)]carboxamide]
metabolised at 0.5 h [2]: 2% | metabolised at 1 h [2]: 4% | metabolised at 2 h [2]: 6% | metabolised at 3 h [2]: 9%

CC1(C)CN(c2ncc(C(=O)N(CC(F)(F)F)c3cccc(C(F)(F)F)c3)c(N)n2)C(=O)N1 [Example 1, 4-Amino-2-(4,4-dimethylimidazolidin-2-on-1-yl) pyrimidine-5-N-(2,2,2-trifluoroethyl)-N-[(3-trifluoromethyl)phenyl]carboxamide hydrochloride]
response vs control in vivo at 30 mg/kg [1]: 220% | metabolised at 0.5 h [2]: < 2% | metabolised at 1 h [2]: < 2% | metabolised at 2 h [2]: 3% | metabolised at 3 h [2]: 4% | activity at 2 µM [3]: 220%

CC1(C)CN(c2ncc(C(=O)N(CC(F)(F)C(F)(F)C(F)(F)F)c3ccc(F)c(C(F)(F)F)c3)c(N)n2)C(=O)N1 [Example 17, 4-Amino-2-(4,4-dimethylimidazolidin-2-on-1-yl)-5-pyrimidine-5-[N-(3-trifluoromethyl-4-fluorophenyl)-N-(2,2,3,3,4,4,4-heptafluorobutyl)]-carboxamide]
response vs control in vivo at 30 mg/kg [1]: 195%

CC1(C)CN(c2ncc(C(=O)N(CC(F)(F)C(F)(F)F)c3cccc(C(F)(F)F)c3)c(N)n2)C(=O)N1 [Example 3, 4-Amino-2-(4,4-dimethylimidazolidin-2-on-1-yl-pyrimidine-5-N-(2,2,3,3,3-pentafluoropropyl)-N-[(3trifluoromethyl)phenyl]carboxamide hydrochloride]
response vs control in vivo at 30 mg/kg [1]: 200%

CC1(C)CN(c2ncc(C(=O)N(CC(F)(F)C(F)(F)F)c3cc(C(F)(F)F)ccc3Cl)c(N)n2)C(=O)N1 [Example 11, 4-Amino-2-(4,4-dimethylimidazolidin-2-on-1-yl)pyrimidine-5-N-[(6-chloro-3-trifluoromethyl)phenyl]-N-(2,2,3,3,3-pentafluoropropyl)carboxamide hydrochloride]
activity at 2 µM [3]: 290%

CC1(C)CN(c2ncc(C(=O)N(CC(F)(F)C(F)(F)F)c3ccc(Cl)c(C(F)(F)F)c3)c(N)n2)C(=O)N1 [Example 9, 4-Amino-2-(4,4-dimethylimidazolidin-2-on-1-yl)pyrimidine-5-N-[(4-chloro-3-trifluoromethyl)phenyl]-N-(2,2,3,3,3-pentafluoropropyl)carboxamide]
response vs control in vivo at 30 mg/kg [1]: 193%

CC1(C)CN(c2ncc(C(=O)N(CC(F)(F)F)c3ccc(Cl)c(C(F)(F)F)c3)c(N)n2)C(=O)N1 [Example 8, 4-Amino-2-(4,4-dimethylimidazolidin-2-on-1-yl)pyrimidine-5-N-[(4-chloro-3-trifluoromethyl)phenyl]-N-(2,2,2-trifluoroethyl)carboxamide hydrochloride]
response vs control in vivo at 30 mg/kg [1]: 182%
